Here are results for 5 compounds from patent publication US11254904B2, “Culture material and use thereof” (MITSUI CHEMICALS, INC., priority 2019, dated 2022).

Counter-ions that a name gives are not always drawn.

Data set [1] is described as follows: Evaluation of drug sorption (drug residual rate). In kind it is physicochemical. The following applies: 10 μmol/L drug solution, 0.5 ml per well, 23° C., 2 days; average of three wells. On the procedure:
Thereafter, the drug solutions were recovered. The concentrations of the recovered drug solutions were measured by a fluorescence analysis method or LC/MS. The drug residual rate, which was the concentration of the measured recovered drug solution with respect to the concentration of the drug solution before added to the vessel, was calculated. The average value of the drug residual rate in three wells was given. For the drugs 1 to 3 for evaluation, concentration analysis was performed by a fluorescence analysis method.

A short description of data set [2]: Evaluation of drug sorption (drug residual rate). The data set is classed as physicochemical. The note with it: 10 μmol/L drug solution, 0.5 ml per well, 23° C., 2 days; average of three wells. On the procedure: Thereafter, the drug solutions were recovered. The concentrations of the recovered drug solutions were measured by a fluorescence analysis method or LC/MS. The drug residual rate, which was the concentration of the measured recovered drug solution with respect to the concentration of the drug solution before added to the vessel, was calculated. The average value of the drug residual rate in three wells was given. For the drugs 1 to 3 for evaluation, concentration analysis was performed by a fluorescence analysis method. For the drugs 4 to 8 for evaluation, concentration analysis was performed by LC/MS. <Fluorescence Analysis Conditions> • Evaluation apparatus: FP-6600 (spectrofluorometer, manufactured by JASCO Corporation) • Used cell: Micro cell made of quartz • Bandwidth: excitation side: 5 nm, fluorescence side: 6 nm • Sensitivity (PMT voltage): 400 V • Excitation wavelength: rhodamine B 555 nm <LC/MS Conditions> • Apparatus: Acquity UPLC I-class system/TQ-S micro(water) • Ionization method: electrospray ionization (ESI), positive and negative ion detection A drug sorption test was performed on the 24-well TCPS culture vessel (manufactured by Corning Incorporated, made of polystyrene (PS)) used in Comparative Example 4 and the 24-well PDMS culture vessel (product name: […] (trademark) model number: […]
This is another data set of the same source.

As to `CC(C)NCC(O)c1ccc(O)c(O)c1` (stereo not drawn) [Isoproterenol Hydrochloride, isoproterenol hydrochloride], the “drug residual rate, 4-methyl-1-pentene Polymer Vessel (Example 11)” value (shortened to “drug residual rate … (Example 11)”) in data set [1] is reported as 63%. Moreover, in data set [2], the “drug residual rate, PDMS Vessel (Comparative Example 8)” value (“drug residual rate, PDMS Vessel” for short) was determined as 1% and the “drug residual rate, PS Vessel (Comparative Example 7)” value (from here on “drug residual rate, PS Vessel”) amounted to 65%.

With `Cc1oncc1C(=O)Nc1ccc(C(F)(F)F)cc1` [Leflunomide, leflunomide], in data set [1], the “drug residual rate … (Example 11)” value worked out at 68%. In data set [2], the “drug residual rate, PDMS Vessel” value is listed as 2% and the “drug residual rate, PS Vessel” value stood at 70%.

In the case of `CCN(CC)c1ccc2c(-c3ccccc3C(=O)O)c3ccc(=[N+](CC)CC)cc-3oc2c1.[Cl-]` [Rhodamine B, rhodamine B], the “drug residual rate … (Example 11)” value in data set [1] turned out to be 98%. Also, in data set [2], the “drug residual rate, PDMS Vessel” value was determined as 2% and the “drug residual rate, PS Vessel” value is reported as 90%.

For the compound `Clc1ccccc1CN1CCc2sccc2C1` [Ticlopidine Hydrochloride, ticlopidine hydrochloride], in data set [1], the “drug residual rate … (Example 11)” value is given as 64%. For the same compound, in data set [2], the “drug residual rate, PDMS Vessel” value came out at 1% and the “drug residual rate, PS Vessel” value turned out to be 67%.

As for rhodamine 123, the “drug residual rate … (Example 11)” value in data set [1] is on record as 99%. In data set [2], the “drug residual rate, PDMS Vessel” value stood at 58% and the “drug residual rate, PS Vessel” value came out at 79%.
